Measurements published in article PMC6248945, “Antibacterial properties of the pituitary adenylate cyclase-activating polypeptide: A new human antimicrobial peptide” (PLoS ONE, 2018).
Values after ≈ are worked out from the molar mass of the structure shown. Like-named read-outs stand apart in the source and are kept apart here. Where a SMILES comes first, the peptide text is derived from it.

Key:
[1] = test system: Bacillus amyloliquefaciens (LMG22478); conditions: LMG22478, 20 h
Bacillus velezensis = conditions: 20 h
[2] = test system: Pseudomonas fluorescens (MF37); conditions: 20 h
[3] = test system: Burkholderia cenocepacia (J2315); conditions: 20 h
[4] = test system: Burkholderia cenocepacia (K56-2); conditions: 20 h
[5] = test system: Staphylococcus aureus (ATCC6538#P); conditions: ATCC6538, 20 h
[6] = test system: Escherichia coli ATCC25922; conditions: ATCC25922, 20 h
Bacillus subtilis (PY79) = conditions: PY79, 20 h
Escherichia coli (JM109) = experiment: MIC, CLSI microdilution; assay type: cell-based; conditions: MHB, 37 °C, 20h, OD read-out, at least triplicate
Experimental: Assays were performed according to the CLSI microdilution method. Briefly, the bacterial strains were inoculated and allowed to reach an OD600 of 0.08–0.13 prior to dilution to 10^6 CFU/mL in Mueller-Hinton broth (MHB). A bacterial suspension (50 μL) was then added to each well of a 96-well microplate containing serially diluted peptide solutions (50 μL in MHB) and incubated at 37 °C for 20h. A well containing sterilized medium was used as a sterility control and another well containing no added peptide served as a growth control.

[7] = test system: Pseudomonas aeruginosa (ATCC33350-Sero-2); conditions: ATCC33350, 20 h
[8] = test system: Burkholderia cenocepacia (LMG18829); conditions: LMG18829, 20 h
DPP-IV = test system: DPP-IV; set-up: method as in PMID 18353507; conditions: cited from earlier work
[9] = test system: Staphylococcus aureus (Newman); conditions: 20 h
[10] = test system: Burkholderia thailendensis (ATCC700388); conditions: CLSI microdilution, MHB, 37 °C, 20h, OD read-out; at least triplicate
[11] = test system: Pseudomonas putida (KT2440); conditions: 20 h
[12] = test system: Escherichia coli (O157 :H7); conditions: CLSI microdilution, MHB, 37 °C, 20h, OD read-out; at least triplicate
[13] = test system: Serratia marcescens (ATCC14756); conditions: ATCC14756, 20 h
[14] = test system: Actinobacillus pleuropneumoniae (4074); conditions: 20 h
[15] = test system: Burkholderia cenocepacia (CEP0511 Gvar3b); conditions: CLSI microdilution, MHB, 37 °C, 20h, OD read-out; at least triplicate
[16] = test system: Burkholderia cenocepacia (LMG19240); conditions: CLSI microdilution, MHB, 37 °C, 20h, OD read-out; at least triplicate
[17] = test system: Bacillus cereus (ATCC11778); conditions: ATCC11778, 20 h
[18] = test system: Bacillus circulans (LSPQ3543); conditions: 20 h
[19] = relative to PACAP38; cited from earlier work
[20] = test system: Pseudomonas aeruginosa (PA14); conditions: PA14, 20 h

Structure (SMILES) | MIC, Bacillus amyloliquefaciens [1] [µg/mL] | MIC, Bacillus velezensis (Bacillus velezensis) [µg/mL] | MIC, Pseudomonas fluorescens (MF37) [2] [µg/mL] | MIC, Burkholderia cenocepacia (J2315) [3] [µg/mL] | MIC, Burkholderia cenocepacia (K56-2) [4] [µg/mL] | MIC, Staphylococcus aureus (ATCC6538#P) [5] [µg/mL] | MIC, Escherichia coli ATCC25922 [6] [µg/mL] | MIC, Bacillus subtilis (PY79) (Bacillus subtilis (PY79)) [µg/mL] | MIC, Escherichia coli (JM109) (Escherichia coli (JM109)) [µg/mL] | MIC, Pseudomonas aeruginosa (ATCC33350-Sero-2) [7] [µg/mL] | MIC, Burkholderia cenocepacia (LMG18829) [8] [µg/mL] | Metabolic stability against DPP-IV (DPP-IV) | MIC, Staphylococcus aureus (Newman) [9] [µg/mL] | MIC, Burkholderia thailendensis (ATCC700388) [10] [µg/mL] | MIC, Pseudomonas putida (KT2440) [11] [µg/mL] | MIC, Escherichia coli (O157 :H7) [12] [µg/mL] | MIC, Serratia marcescens (ATCC14756) [13] [µg/mL] | MIC, Actinobacillus pleuropneumoniae [14] [µg/mL] | MIC, Burkholderia cenocepacia (CEP0511 Gvar3b) [15] [µg/mL] | MIC, Burkholderia cenocepacia (LMG19240) [16] [µg/mL] | other results
CC[C@H](C)[C@H](NC(=O)CNC(=O)[C@H](CC(=O)O)NC(=O)[C@H](CO)NC(=O)[C@@H](N)Cc1c[nH]cn1)C(=O)N[C@@H](Cc1ccccc1)C(=O)N[C@H](C(=O)N[C@@H](CC(=O)O)C(=O)N[C@@H](CO)C(=O)N[C@@H](Cc1ccc(O)cc1)C(=O)N[C@@H](CO)C(=O)N[C@@H](CCCNC(=N)N)C(=O)N[C@@H](Cc1ccc(O)cc1)C(=O)N[C@@H](CCCNC(=N)N)C(=O)N[C@@H](C)C(=O)N[C@@H](CCC(N)=O)C(=O)N[C@@H](CCSC)C(=O)N[C@@H](C)C(=O)N[C@H](C(=O)N[C@@H](CCCCN)C(=O)N[C@@H](CCCCN)C(=O)N[C@@H](Cc1ccc(O)cc1)C(=O)N[C@@H](CC(C)C)C(=O)N[C@@H](C)C(=O)N[C@@H](C)C(=O)N[C@H](C(=O)N[C@@H](CC(C)C)C(=O)NCC(=O)N[C@@H](CCCCN)C(=O)N[C@@H](CCCNC(=N)N)C(=O)N[C@@H](Cc1ccc(O)cc1)C(=O)N[C@@H](CCCCN)C(=O)N[C@@H](CCC(N)=O)C(=O)N[C@@H](CCCNC(=N)N)C(=O)N[C@H](C(=O)N[C@@H](CCCCN)C(=O)N[C@@H](CC(N)=O)C(=O)N[C@@H](CCCCN)C(N)=O)C(C)C)C(C)C)C(C)C)[C@@H](C)O [compound 3, [Ala^15]PACAP38] (H-HSDGIFTDSYSRYRAQMAVKKYLAAVLGKRYKQRVKNK-NH2) | 10 (≈ 2.23 µM) | 33 (≈ 7.37 µM) | >200 | 9 (≈ 2.01 µM) | >200 | >200 | >200 | 5 (≈ 1.12 µM) | 93 (≈ 20.8 µM) | >200 | >200 | improved metabolic stability | >200 | >200 | 93 (≈ 20.8 µM) | >200 | >200 | 112 (≈ 25 µM) | >200 | >200 | MIC, Bacillus subtilis (2597) (Bacillus subtilis (2597); 2597, 20 h): 111 µg/mL (≈ 24.8 µM); MIC, Bacillus cereus (ATCC11778) [17]: >200 µg/mL; MIC, Bacillus circulans (LSPQ3543) [18]: 21 µg/mL (≈ 4.69 µM); Metabolic stability in human plasma [19]: improved metabolic stability; MIC, Pseudomonas aeruginosa (PA14) [20]: >200 µg/mL
CC[C@H](C)[C@H](NC(=O)CNC(=O)[C@H](CC(=O)O)NC(=O)[C@H](CO)NC(=O)[C@@H](N)Cc1c[nH]cn1)C(=O)N[C@@H](Cc1ccccc1)C(=O)N[C@H](C(=O)N[C@@H](CC(=O)O)C(=O)N[C@@H](CO)C(=O)N[C@@H](Cc1ccc(O)cc1)C(=O)N[C@@H](CO)C(=O)N[C@@H](CCCNC(=N)N)C(=O)N[C@@H](Cc1ccc(O)cc1)C(=O)N[C@@H](CCCNC(=N)N)C(=O)N[C@@H](CCCCN)C(=O)N[C@@H](CCC(N)=O)C(=O)N[C@@H](CCSC)C(=O)N[C@@H](C)C(=O)N[C@H](C(=O)N[C@@H](C)C(=O)N[C@@H](CCCCN)C(=O)N[C@@H](Cc1ccc(O)cc1)C(=O)N[C@@H](CC(C)C)C(=O)N[C@@H](C)C(=O)N[C@@H](C)C(=O)N[C@H](C(=O)N[C@@H](CC(C)C)C(=O)NCC(=O)N[C@@H](CCCCN)C(=O)N[C@@H](CCCNC(=N)N)C(=O)N[C@@H](Cc1ccc(O)cc1)C(=O)N[C@@H](CCCCN)C(=O)N[C@@H](CCC(N)=O)C(=O)N[C@@H](CCCNC(=N)N)C(=O)N[C@H](C(=O)N[C@@H](CCCCN)C(=O)N[C@@H](CC(N)=O)C(=O)N[C@@H](CCCCN)C(N)=O)C(C)C)C(C)C)C(C)C)[C@@H](C)O [compound 4, [Ala^20]PACAP38] (H-HSDGIFTDSYSRYRKQMAVAKYLAAVLGKRYKQRVKNK-NH2) | 7 (≈ 1.56 µM) | 61 (≈ 13.6 µM) | 112 (≈ 25 µM) | 5 (≈ 1.12 µM) | >200 | >200 | >200 | 3 (≈ 0.67 µM) | 28 (≈ 6.25 µM) | >200 | >200 | improved metabolic stability | >200 | >200 | 56 (≈ 12.5 µM) | 168 (≈ 37.5 µM) | >200 | >200 | >200 | >200 | MIC, Bacillus subtilis (2597) (Bacillus subtilis (2597); CLSI microdilution, MHB, 37 °C, 20h, OD read-out, at least triplicate): 168 µg/mL (≈ 37.5 µM); MIC, Bacillus cereus (ATCC11778) [17]: >200 µg/mL; MIC, Bacillus circulans (LSPQ3543) [18]: 47 µg/mL (≈ 10.5 µM); Metabolic stability in human plasma [19]: improved metabolic stability; MIC, Pseudomonas aeruginosa (PA14) [20]: 112 µg/mL (≈ 25 µM)
CC[C@H](C)[C@H](NC(=O)CNC(=O)[C@H](CC(=O)O)NC(=O)[C@H](CO)NC(=O)[C@@H](N)Cc1c[nH]cn1)C(=O)N[C@@H](Cc1ccccc1)C(=O)N[C@H](C(=O)N[C@@H](CC(=O)O)C(=O)N[C@@H](CO)C(=O)N[C@@H](Cc1ccc(O)cc1)C(=O)N[C@@H](CO)C(=O)N[C@@H](CCCNC(=N)N)C(=O)N[C@@H](Cc1ccc(O)cc1)C(=O)N[C@@H](CCCNC(=N)N)C(=O)N[C@@H](CCCCN)C(=O)N[C@@H](CCC(N)=O)C(=O)N[C@@H](CCSC)C(=O)N[C@@H](C)C(=O)N[C@H](C(=O)N[C@@H](CCCCN)C(=O)N[C@@H](C)C(=O)N[C@@H](Cc1ccc(O)cc1)C(=O)N[C@@H](CC(C)C)C(=O)N[C@@H](C)C(=O)N[C@@H](C)C(=O)N[C@H](C(=O)N[C@@H](CC(C)C)C(=O)NCC(=O)N[C@@H](CCCCN)C(=O)N[C@@H](CCCNC(=N)N)C(=O)N[C@@H](Cc1ccc(O)cc1)C(=O)N[C@@H](CCCCN)C(=O)N[C@@H](CCC(N)=O)C(=O)N[C@@H](CCCNC(=N)N)C(=O)N[C@H](C(=O)N[C@@H](CCCCN)C(=O)N[C@@H](CC(N)=O)C(=O)N[C@@H](CCCCN)C(N)=O)C(C)C)C(C)C)C(C)C)[C@@H](C)O [compound 5, [Ala^21]PACAP38] (H-HSDGIFTDSYSRYRKQMAVKAYLAAVLGKRYKQRVKNK-NH2) | 20 (≈ 4.47 µM) | 168 (≈ 37.5 µM) | >200 | 20 (≈ 4.47 µM) | >200 | >200 | >200 | 42 (≈ 9.38 µM) | 112 (≈ 25 µM) | >200 | >200 | improved metabolic stability | >200 | >200 | 186 (≈ 41.5 µM) | >200 | >200 | >200 | >200 | >200 | MIC, Bacillus subtilis (2597) (Bacillus subtilis (2597); 2597, 20 h): 56 µg/mL (≈ 12.5 µM); MIC, Bacillus cereus (ATCC11778) [17]: >200 µg/mL; MIC, Bacillus circulans (LSPQ3543) [18]: 84 µg/mL (≈ 18.8 µM); Metabolic stability in human plasma [19]: improved metabolic stability; MIC, Pseudomonas aeruginosa (PA14) [20]: >200 µg/mL
